Measured values published in patent publication US6403617B1, “Diaminopyridine-containing thiourea inhibitors of herpes viruses” (American Home Products Corp., priority 1998, dated 2002).
Values after ≈ are worked out from the molar mass of the structure shown.

Experiments:
HCMV wild-type = experiment: HCMV yield assay; format: cell-based, Human Cytomegalovirus; settings: human foreskin fibroblasts, reduction of virus yield by 50%; for IC50: Human betaherpesvirus 5, Fibroblast, read-out: IC50 (ug/ml) HCMV
Protocol: Yield assay. Monolayer cultures of human foreskin fibroblasts are infected with HCMV wild-type, typically at a multiplicity of infection equal to 0.2, in the presence of inhibitor compound (varying concentrations). At three days post-infection, total virus produced in these cultures (i.e. virus yield) is assessed by harvesting and titering the virus in 12-well plates of cultured human foreskin fibroblasts (done in the absence of inhibitor). Plaques are quantified at 2 weeks post-infection. An inhibitor of HCMV is identified by the reduction in titer of virus yield in the presence, compared to the titer in the absence of compound. In this assay, the relative anti-HCMV activity of an inhibitor is typically determined by calculating the IC50 or IC90 value, that is, the amount of compound required to reduce the virus yield by 50% or 90%, respectively. Table I describes IC50 data for compounds tested against HCMV.

HSV-1 = experiment: HSV Antiviral (ELISA) Assay; format: cell-based, herpes simplex virus type 1; settings: Vero cells, HSV-1, about 24 hours post-infection; for IC50: Human alphaherpesvirus 1, read-out: IC50 (ug/ml) HSV
Protocol: Vero cells (ATCC #CCL-81) are plated on 96-well tissue cultugre plates at 3.5×10^4 cells per 100 μl tissue culture DMEM (Dulbecco's modified Eagle media) supplemented with 2% fetal bovine serum (FBS) in each well. After overnight incubation @ 37° C. (in 5% CO2) and 30 minutes prior to infection with HSV-1 (multiplicity of infection equal to 0.006), cells are either untreated, or treated with test compound (multiple concentrations) or reference standard drug control. After approximately 24 hours post-infection incubation @ 37° C. (in 5% CO2), cells are fixed for ELISA assay. The primary antibody is murine anti-HSV glycoprotein D monoclonal primary antibody and the secondary antibody is goat anti-mouse IgG linked to β-galactosidase. Thus the extent of viral replication is determined by assessing β-galactosidase activity by quantifying the generation of the 4-methyl umbelliferone fluorescent cleavage product after addition of the methyl umbelliferyl-β-D-galactoside (Sigma #M1633) substrate on a microfluorimeter (365 nm for excitation and 450 nm for emission). Antiviral activity (IC50) of the test compound is determined by comparing the flourescence obtained in absence of compound to that obtained in the presence of compound.

VZV strain Ellen = experiment: VZV Antiviral (ELISA) Assay; format: cell-based, varicella-zoster virus; settings: human foreskin fibroblast cells, three days; for inhibition at 10 µg/mL / IC50: Human alphaherpesvirus 3, 72 h; for inhibition at 10 µg/mL: read-out: % inhibition 10 ug/ml VZV; for IC50: read-out: IC50 (ug/ml) VZV
Protocol: For the generation of stock VZV to be used in the assay, VZV strain Ellen (ATCC #VR-1367) is used to infect human foreskin fibroblast (HFF) cells at low multiplicity (less than 0.1) and incubated overnight at 37° C. in 5% CO2. After the overnight incubation, the mixture of uninfected and VZV-infected HFF infected cells are then harvested and added to each well of 96-well plates (3.5×10^4 cells in 100 μl DMEM supplemented with 2% FBS) which contain test compound or the reference standard drug control (in 100 μl DMEM supplemented with 2% FBS per well). These cells are incubated for three days at 37° C. in 5% CO2, then fixed for ELISA assay. The primary antibody is murine anti-VZV glycoprotein II monoclonal antibody (Applied Biosystems, Inc. #13-145-100) and the secondary antibody is goat anti-mouse IgG linked to β-galactosidase. Thus the extent of viral replication is determined by assessing β-galactosidase activity by quantifying the generation of the 4-methyl umbelliferone fluorescent cleavage product after addition of the methyl umbelliferyl-β-D-galactoside (Sigma #M1633) substrate on a microfluorimeter (365 nm for excitation and 450 nm for emission). Antiviral activity (IC50) of the test compound is determined by comparing the flourescence obtained in absence of compound to that obtained in the presence of compound.

Compound	IC50 (HCMV wild-type)	IC50 (HSV-1)	inhibition at 10 µg/mL (VZV strain Ellen; 10 ug/ml)	IC50 (VZV strain Ellen)	IC50 (ug/ml) HCMV (HCMV wild-type)	IC50 (ug/ml) HSV (HSV-1)	% inhibition 10 ug/ml VZV (VZV strain Ellen; 10 ug/ml)	IC50 (ug/ml) VZV (VZV strain Ellen)
COc1cc(OC)c(NC(=S)Nc2ccc(NC(=O)c3csnn3)cn2)cc1Cl [Example 514, [1,2,3]Thiadiazole-4-carboxylic acid {6-[3-(5-chloro-2,4-dimethoxy-phenyl)-thioureido]-pyridin-3-yl}-amide]	1.2 µg/mL (≈ 2.66 µM)	4 µg/mL (≈ 8.87 µM)	62%	> 10 µg/mL				
O=C(Nc1ccc(NC(=S)Nc2cc(Cl)cc(Cl)c2)cn1)c1csnn1 [Example 515, [1,2,3]Thiadiazole-4-carboxylic acid {5-[3-(3,5-dichloro-phenyl)-thioureido]-pyridin-2-yl}-amide]	> 10 µg/mL	> 10 µg/mL	30%	> 10 µg/mL				
Pyridine-2-carboxylic acid {6-[3-(5-chloro-2,4-dimethoxy-phenyl)-thioureido]-pyridin-3-yl}-amide [Example 506]					>10 µg/mL	>10 µg/mL	68%	>10 µg/mL
